From PubChem BioAssay AID1259407 (Chemical Carcinogenesis Research Information System (CCRIS), 2018)
Active and inactive are the calls of the source. No rule for the calls is given here.

System: CCRIS mutagenicity, Ames/micronucleus/aberration tests
Test: CCRIS mutagenicity studies
Conditions: Test System: AMES SALMONELLA TYPHIMURIUM
[1] = Strain/Indicator: TA98, Metabolic Activation: NONE, Method: STANDARD PLATE
[2] = Strain/Indicator: TA98, Metabolic Activation: RAT, LIVER, S-9, AROCLOR 1254, Method: STANDARD PLATE
[3] = Strain/Indicator: TA100, Metabolic Activation: NONE, Method: STANDARD PLATE
[4] = Strain/Indicator: TA1535, Metabolic Activation: NONE, Method: STANDARD PLATE

## ClCc1ccncc1
Strain/Indicator: TA97, Metabolic Activation: NONE, Method: STANDARD PLATE
  mutagenic call: inactive; negative
Strain/Indicator: TA97, Metabolic Activation: RAT, LIVER, S-9, AROCLOR 1254, Method: STANDARD PLATE
  mutagenic call: inactive; negative
[1]
  mutagenic call: inactive; negative
[2]
  mutagenic call: inactive; negative
[3]
  mutagenic call: inactive; negative
Strain/Indicator: TA102, Metabolic Activation: NONE, Method: STANDARD PLATE
  mutagenic call: inactive; negative
Strain/Indicator: TA102, Metabolic Activation: RAT, LIVER, S-9, AROCLOR 1254, Method: STANDARD PLATE
  mutagenic call: inactive; negative

## Cc1cccc(NO)c1
Strain/Indicator: TA98, Metabolic Activation: RAT, LIVER, S-9, AROCLOR 1254, Method: PREINCUBATION
  mutagenic call: inactive; negative
Strain/Indicator: TA100, Metabolic Activation: RAT, LIVER, S-9, PCB, Method: PREINCUBATION
  mutagenic call: active; positive

## O=C1CCC(=O)N1O
[1]
  mutagenic call: inactive; negative
[2]
  mutagenic call: inactive; negative
[3]
  mutagenic call: inactive; negative
Strain/Indicator: TA100, Metabolic Activation: RAT, LIVER, S-9, AROCLOR 1254, Method: STANDARD PLATE
  mutagenic call: inactive; negative
[4]
  mutagenic call: inactive; negative
Strain/Indicator: TA1535, Metabolic Activation: RAT, LIVER, S-9, AROCLOR 1254, Method: STANDARD PLATE
  mutagenic call: inactive; negative
Strain/Indicator: TA1537, Metabolic Activation: NONE, Method: STANDARD PLATE
  mutagenic call: inactive; negative
Strain/Indicator: TA1537, Metabolic Activation: RAT, LIVER, S-9, AROCLOR 1254, Method: STANDARD PLATE
  mutagenic call: inactive; negative

## c1ccc(-c2ccc(CCC3CO3)cc2)cc1 (configuration not stated)
Strain/Indicator: TA100, Metabolic Activation: NONE, Method: PREINCUBATION
  mutagenic call: inactive; negative
[3]
  mutagenic call: active; positive
[4]
  mutagenic call: inactive; negative

## COc1cc(CNC(=O)C(C)Br)ccc1O (configuration not stated)
[3]
  mutagenic call: active; positive

## O=C1OC(=C(Cl)Cl)C=C1Cl
[3]
  mutagenic call: active; positive

## CSCCl
Strain/Indicator: TA98, Metabolic Activation: NONE, Method: SPOT TEST
  mutagenic call: inactive; negative
Strain/Indicator: TA98, Metabolic Activation: RAT, LIVER, S-9, AROCLOR 1254, Method: SPOT TEST
  mutagenic call: inactive; negative
Strain/Indicator: TA100, Metabolic Activation: NONE, Method: SPOT TEST
  mutagenic call: active; positive
Strain/Indicator: TA100, Metabolic Activation: RAT, LIVER, S-9, AROCLOR 1254, Method: SPOT TEST
  mutagenic call: active; positive
Strain/Indicator: TA102, Metabolic Activation: RAT, LIVER, S-9, AROCLOR 1254, Method: SPOT TEST
  mutagenic call: active; positive
